Literature values, collected in patent US12685710B2, “Administration of ciclopirox with no adversal gastrointestinal toxicity” (ATLAS MOLECULAR PHARMA, S.L., priority 2021, dated 2026).

Tested on: patients with hematological malignancies

Cc1cc(C2CCCCC2)n(O)c(=O)c1 [ciclopirox olamine, 6-cyclohexyl-1-hydroxy-4-methyl-2 (1H)-pyridone with 2-aminoethanol in a 1:1 ratio]
grade 3 GI dose limiting toxicity (DLTs) and bowel inflammation, patients affected in cohort (oral, OraSweet formulation, 80 mg/m^2 (2.2 mg/kg) 4 times daily): 3/4
tolerability of once-daily dosing (oral, once daily up to and including 40 mg/m^2 (1.1 mg/kg)): well tolerated
gastrointestinal toxicity in Phase I study (patients treated with ciclopirox olamine): showed gastrointestinal toxicity
